In ChEMBL document CHEMBL1147061, “Antidepressant binding site in a bacterial homologue of neurotransmitter transporters” (Nature, 2007):

Legend:
[1] = Inhibition of L-[3H]Ala uptake at Aquifex aeolicus sodium-coupled leucine transporter
[2] = test system: Aquifex aeolicus; assay: Activity at Aquifex aeolicus sodium-coupled leucine transporter assessed as inhibition of L-[3H]Ala transport at 1 uM
[3] = test system: Aquifex aeolicus; assay: Activity at Aquifex aeolicus sodium-coupled leucine transporter assessed as inhibition of L-[3H]Ala transport at 20 uM
[4] = test system: Aquifex aeolicus; assay: Activity at Aquifex aeolicus sodium-coupled leucine transporter assessed as inhibition of L-[3H]Ala transport at 50 uM
[5] = Inhibition of L-[3H]Leu uptake at Aquifex aeolicus sodium-coupled leucine transporter
[6] = (§1) Binding affinity to Aquifex aeolicus sodium-coupled leucine transporter
[7] = test system: Aquifex aeolicus; assay: as §1

Row | IC50 [1] | Km [2] | Vmax [2] | Km [3] | Vmax [3] | Km [4] | Vmax [4] | IC50 [5] | Kd [6] | kcat [7] | SMILES
1 | 4.7 µM | 0.42 µM | 1480 pmol/min/mg | 0.47 µM | 970 pmol/min/mg | 0.48 µM | 770 pmol/min/mg | 250 µM | – | – | CN(C)CCCN1c2ccccc2CCc2ccc(Cl)cc21 [CLOMIPRAMINE]
2 | – | – | – | – | – | – | – | – | 0.02 µM | 0.000333 s⁻¹ | CC(C)C[C@H](N)C(=O)O [LEUCINE]
